Measured values: patent publication US20200222406A1, “METHODS FOR TREATING OR PREVENTING CARDIOVASCULAR DISORDERS AND LOWERING RISK OF CARDIOVASCULAR EVENTS” (DALCOR PHARMA UK LTD., LEATHERHEAD, ZUG BRANCH, priority 2017, published 2020)

How the values were obtained:
[1] = system: endothelial-dependent vasodilatation; assay: ACh-induced endothelial-dependent vasodilatation under selective pharmacological blockade; design: species or system mice
From the text: (§1) Selective pharmacological blockade of the signaling pathways responsible for endothelial-dependent vasodilatation (Vanhoutte et al., Acta Physiol (Oxf). (2017) 219:22-96) was then used to identify the mechanism responsible for the improvement observed in Adcy9^Gt/Gt mice.

[2] = system: flow-mediated vasodilatation; assay: Flow-mediated vasodilatation under pharmacological blockade; conditions: Adcy9^Gt/Gt mice
From the text: as §1

CETP [3] = target: T1, CETP (Homo sapiens, UniProt P11597); conditions: cited from earlier work
T1 construct: endogenous in cells; host or cells: patients in Phase III clinical trials (plasma CETP)
T1 sequence (P11597 18-493): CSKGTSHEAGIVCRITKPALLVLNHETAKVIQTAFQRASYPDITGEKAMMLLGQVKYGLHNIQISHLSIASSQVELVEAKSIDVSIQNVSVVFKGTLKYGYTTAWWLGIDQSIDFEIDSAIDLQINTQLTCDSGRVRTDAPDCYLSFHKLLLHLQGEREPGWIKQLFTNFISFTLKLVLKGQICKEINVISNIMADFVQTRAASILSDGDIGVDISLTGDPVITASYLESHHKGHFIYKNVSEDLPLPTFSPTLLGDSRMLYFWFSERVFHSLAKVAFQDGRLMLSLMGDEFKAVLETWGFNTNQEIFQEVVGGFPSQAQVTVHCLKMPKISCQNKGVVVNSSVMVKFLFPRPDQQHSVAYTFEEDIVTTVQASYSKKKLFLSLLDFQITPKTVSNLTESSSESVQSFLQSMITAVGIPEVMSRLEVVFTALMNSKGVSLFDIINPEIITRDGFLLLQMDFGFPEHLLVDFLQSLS

CETP [4] = target: T1, CETP; conditions: Phase III, with atorvastatin concomitantly vs atorvastatin alone, trial terminated; cited from earlier work
[5] = 600 mg dalcetrapib vs placebo, patients with recent ACS

For `NC(=NCCC[C@H](N)C(=O)O)N[N+](=O)[O-]` [L-NNA], the ACh-induced vasodilatation ([1]; Adcy9^Gt/Gt mice) was “inhibited significantly”, the ACh-induced vasodilatation ([1]; WT mice) was “inhibited significantly” and the flow-mediated vasodilatation [2] was “numerically reduced”.
In the case of `CCC(CC)CC1(C(=O)Nc2ccccc2SC(=O)C(C)C)CCCCC1` [dalcetrapib], the HDL-c (CETP [3]; [5]) is listed as “marked increase”, the cardiovascular events (CETP [3]; [5]) is listed as “did not show a significant reduction” and the “efficacy relative to statins alone” value (CETP [3]; Phase III, trial halted) is listed as “lack of efficacy”.
For `Cc1ccc(Cl)c(Nc2ccccc2C(=O)O)c1Cl` [meclofenamate], the ACh-induced vasodilatation ([1]; Adcy9^Gt/Gt mice) was “inhibited”.
In the case of `CCOC(=O)N1c2ccc(C(F)(F)F)cc2[C@@H](N(Cc2cc(C(F)(F)F)cc(C(F)(F)F)c2)C(=O)OC)C[C@H]1CC` [torcetrapib], the mortality (CETP [4]) is given as “incidence of mortality”.
